Among the data in PubChem BioAssay (NCI) are TGI values, retold here.

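In this assay, cells in 96-well plates receive the compound at five concentrations for 48 hours. Endpoints are linearly interpolated between the surrounding concentrations. The concentration for full growth arrest is given as TGI.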 Bounds are passed on as bounds.

Some test systems named below: ACHN renal; CAKI-1 renal; CCRF-CEM leukemia; COLO 205 colon; MDA-MB-435; MDA-N; NCI-H522 lung; RPMI-8226 leukemia; SR leukemia; TK-10 renal.
What all share (experiment): growth of human tumour cells (NCI), 48 h

As for `Cc1noc2nnn(-c3ccc(Cl)cc3)c(=O)c12`, the TGI in the test with ACHN renal stood at 15.1 µM; in the test on CAKI-1 renal, 13 µM; in the test with CCRF-CEM leukemia, 2.48 µM; in the test on COLO 205 colon it was 11.9 µM; with MDA-MB-435, 16.2 µM; in the test on MDA-N, 17.9 µM. The TGI with NCI-H522 lung was determined as 2.24 µM; with RPMI-8226 leukemia, 3.11 µM; in the test on SR leukemia, 3.78 µM; in the test with TK-10 renal it was 21.8 µM.

On to `COc1ccc2oc(OC)c(CC=C(C)C)c(=O)c2c1C`, for which the TGI in the test on ACHN renal, in the test with CAKI-1 renal, in the test on CCRF-CEM leukemia, in the test on COLO 205 colon, in the test on MDA-MB-435 and in the test on MDA-N was more than 100 µM throughout. For the same compound, the TGI with NCI-H522 lung, in the test with RPMI-8226 leukemia, in the test on SR leukemia and in the test on TK-10 renal was more than 100 µM in each case.

Take `N=C(N)SCc1ccc(Cl)cc1Cl` (tested in a mixture with another compound): the TGI in the test on ACHN renal is 23.1 µM; in the test on CAKI-1 renal, 24.2 µM; in the test on CCRF-CEM leukemia, 15.5 µM; with COLO 205 colon, 39.6 µM; in the test on MDA-MB-435 it was 18.3 µM; in the test with MDA-N it was 21.6 µM. Besides, the TGI in the test with NCI-H522 lung was found to be 30.8 µM; in the test with RPMI-8226 leukemia it was 12.7 µM; in the test on SR leukemia, 22.8 µM; in the test on TK-10 renal, 18.8 µM.

In the case of `CCN1CCN(c2nc3ccc([N+](=O)[O-])cc3nc2C(=O)c2ccccc2)CC1`, the TGI in the test on ACHN renal is 29.3 µM; with CAKI-1 renal, 30.5 µM; in the test with CCRF-CEM leukemia it was 8.27 µM; with COLO 205 colon it was 30 µM; in the test on MDA-MB-435, 30.2 µM; in the test on MDA-N, 33.9 µM. Further, the TGI amounted to 10.3 µM in the test with NCI-H522 lung, 30.9 µM with RPMI-8226 leukemia, 31.8 µM in the test on SR leukemia and 34.2 µM in the test with TK-10 renal.

In the case of `Nc1nc(Cl)cc(NCCC2(CO)CCC2)n1`, the TGI in the test with ACHN renal, in the test with CAKI-1 renal, in the test with CCRF-CEM leukemia, with COLO 205 colon, with MDA-MB-435 and with MDA-N was more than 100 µM in each case. Moreover, the TGI in the test on NCI-H522 lung, in the test on RPMI-8226 leukemia, in the test with SR leukemia and in the test on TK-10 renal was more than 100 µM throughout.

As for `CCOC(=O)C(Cl)(NC(=O)c1c(F)c(F)c(F)c(F)c1F)C(F)(F)F` (configuration not stated), the TGI is more than 100 µM with ACHN renal; 36.4 µM in the test on CAKI-1 renal; more than 100 µM in the test on CCRF-CEM leukemia; more than 100 µM in the test on COLO 205 colon; more than 100 µM in the test on MDA-MB-435; more than 100 µM in the test on MDA-N. For the same compound, the TGI was 54.7 µM in the test on NCI-H522 lung, more than 100 µM in the test on RPMI-8226 leukemia, more than 100 µM in the test on SR leukemia and more than 100 µM in the test on TK-10 renal.

Consider `COc1ccc(/C=C2\N=C(c3ccccc3)N(N=C3NC(=O)CC(=O)N3)C2=O)cc1`, for which the TGI with ACHN renal, in the test on CAKI-1 renal, in the test with CCRF-CEM leukemia, in the test with COLO 205 colon, in the test with MDA-MB-435 and in the test on MDA-N was more than 100 µM in each case. Moreover, the TGI with NCI-H522 lung, in the test with RPMI-8226 leukemia, in the test on SR leukemia and with TK-10 renal was more than 100 µM each time.

With `Cn1c2ccccc2c2c(=O)[nH]c(=O)[nH]c21`, the TGI with ACHN renal, in the test on CAKI-1 renal, with CCRF-CEM leukemia, in the test with COLO 205 colon, in the test with MDA-MB-435 and with MDA-N was more than 100 µM in each case. The TGI in the test with NCI-H522 lung, in the test on RPMI-8226 leukemia, in the test with SR leukemia and with TK-10 renal was more than 100 µM throughout.

For `COCOc1c(C(O[Si](C)(C)C(C)(C)C)c2cnc(Sc3ccccc3)n2C)ccc(OC)c1OC` (configuration not stated), the TGI with ACHN renal came out at 6.98 µM; in the test on CAKI-1 renal it was 10.1 µM; with CCRF-CEM leukemia it was 9 µM; in the test with MDA-MB-435, 3.26 µM; in the test with MDA-N, 3.34 µM; in the test on NCI-H522 lung it was 3.58 µM. Besides, the TGI in the test on RPMI-8226 leukemia is 4.77 µM; in the test on SR leukemia, 7.74 µM; with TK-10 renal, 16.3 µM.

As for `CC1C2CC(C(S(=O)(=O)N3CCOCC3)/C2=N\O)C1(C)C` (configuration not stated), the TGI in the test on ACHN renal, in the test on CAKI-1 renal, in the test with CCRF-CEM leukemia, with COLO 205 colon, in the test with MDA-MB-435 and in the test with MDA-N was more than 100 µM each time. The TGI in the test on NCI-H522 lung, in the test on RPMI-8226 leukemia, with SR leukemia and in the test on TK-10 renal was more than 100 µM in each case.

With `Cc1cc(C)nc(SC(C)C(=O)N/N=C/c2ccc(OCc3ccccc3)cc2)n1` (configuration not stated), the TGI is more than 100 µM with ACHN renal; more than 100 µM in the test with CAKI-1 renal; more than 100 µM in the test on CCRF-CEM leukemia; 91.6 µM with COLO 205 colon; more than 100 µM in the test on MDA-MB-435; more than 100 µM with MDA-N. For the same compound, the TGI in the test with NCI-H522 lung is more than 100 µM; in the test with RPMI-8226 leukemia, 41.9 µM; with SR leukemia it was 38.1 µM; in the test on TK-10 renal, more than 100 µM.

Turning to `CCOC(=O)NC(NC1=NCCS1)(C(=O)OCC)C(F)(F)F` (configuration not stated), the TGI in the test with ACHN renal, in the test with CAKI-1 renal, in the test with CCRF-CEM leukemia, with COLO 205 colon, in the test on MDA-MB-435 and with MDA-N was more than 100 µM each time. The TGI with NCI-H522 lung, in the test on RPMI-8226 leukemia, in the test on SR leukemia and in the test with TK-10 renal was more than 100 µM in each case.

On to `CN1C(=O)[C@@H]2[C@@H]3c4ccccc4N(S(=O)(=O)C(F)(F)F)[C@@H]3c3[nH]c4ccccc4c3[C@@H]2C1=O`, for which the TGI in the test on ACHN renal, in the test with CAKI-1 renal, in the test on CCRF-CEM leukemia, with COLO 205 colon, in the test with MDA-MB-435 and in the test on MDA-N was more than 100 µM each time. Moreover, the figures for the TGI in the test with RPMI-8226 leukemia, in the test on SR leukemia and in the test on TK-10 renal were more than 100 µM, 43 µM and more than 100 µM, respectively.

For the compound `c1ccc2c(c1)ncn2C1CCCCO1` (configuration not stated), the TGI in the test with ACHN renal, in the test on CCRF-CEM leukemia, in the test with COLO 205 colon, in the test on MDA-MB-435, with MDA-N and with NCI-H522 lung was more than 100 µM in each case. For the same compound, the TGI with RPMI-8226 leukemia, in the test on SR leukemia and with TK-10 renal was more than 100 µM throughout.
